In paper PMC6175634 (Molecular genetics and metabolism, 2018):

Target: T1, sulfamidase (wild-type mouse DBS) (Mus musculus, UniProt Q9EQ08)
T1 sequence (Q9EQ08 23-502): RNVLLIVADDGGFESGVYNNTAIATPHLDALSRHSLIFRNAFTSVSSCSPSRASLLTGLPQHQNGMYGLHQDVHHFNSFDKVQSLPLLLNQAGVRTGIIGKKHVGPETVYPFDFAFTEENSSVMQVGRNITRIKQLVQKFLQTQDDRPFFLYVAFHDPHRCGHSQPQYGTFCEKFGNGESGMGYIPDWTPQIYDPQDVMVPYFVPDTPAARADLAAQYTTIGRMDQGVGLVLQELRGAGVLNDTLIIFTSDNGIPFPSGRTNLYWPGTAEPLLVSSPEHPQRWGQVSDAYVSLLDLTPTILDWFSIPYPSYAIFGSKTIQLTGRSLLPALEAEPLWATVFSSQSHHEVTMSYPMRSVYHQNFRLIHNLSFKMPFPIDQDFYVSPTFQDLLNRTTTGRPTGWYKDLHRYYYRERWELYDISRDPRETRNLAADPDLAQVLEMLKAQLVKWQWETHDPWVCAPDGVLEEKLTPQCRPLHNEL
Assay: LC-MS/MS product formation in dried blood spot, knockout mouse control
Type: biochemical
Settings: 1 mM substrate, otherwise same

SMILES: O=S(=O)(O)N[C@H]1[C@@H](Oc2ccc3ccccc3c2)O[C@H](CO)[C@@H](O)[C@@H]1O [MPS-IIIA-S, 2-sulfamate-2-deoxy-1-α-(2-naphthyl)-glucopyranoside]
- LC-MS/MS product formation in dried blood spot, knockout mouse control: sulfamidase activity was readily detected in a DBS made using blood from a wild-type mouse
